For experiment [1], the system named is IS 100. The format is biochemical, wheat. As to conditions: pH 7, 37° C.; for inhibition of IS 100 activity (in words): Ac-DEVD-AFC hydrolysis, 20 mM HEPES, 0.05% CHAPS, 5% sucrose, FIG. 3. As to the method: As described above, the proteolytic activity of IS 100 can be blocked by using an inhibitor which blocks the active site of the protein enzyme present in the IS 100 principle. In FIG. 2 inhibitor Ac-DEVD-CHO inhibits the activity of IS 100. Several other chemicals or compounds can be tested for their efficacy in blocking the activity of IS 100. In such experiments, IS 100 is mixed with its synthetic substrate Ac-DEVD↓-AFC, and a constant volume of the inhibitor compound is added to check the extent to which the inhibitor blocks the activity of IS 100. In all experimental runs the concentrations of IS 100 and Ac-DEVD↓-AFC are maintained uniformly. The pH for all experiments is kept at 7 and the experiments are run at 37° C.

The test system of experiment [2] is IS 100. The conditions noted are these: Ac-DEVD-AFC hydrolysis.
Protocol: Rates of hydrolysis of a synthetic peptide Ac-DEVD↓-AFC (N-acetyl-Asp-Glu-Val-Asp-7-amino-4-trifluoromethylcoumarin) as a function of variables are plotted. Note that the rate, ΔF, is determined from the initial slope of the time-dependent fluorescence trace.
In the present test, 400 μL of IS 100 is combined with 2 μL of a 1 mM solution of Ac-DEVD↓-AFC, and the fluorescence is monitored as a function of time at 37° C.
A further experiment concerns human recombinant PERK. As to the kind of experiment: Proteolytic cleavage of PERK by IS 100, Western analysis. Format: biochemical. As to conditions: inhibitor included in reaction mixture, FIG. 2 lane 1. As to the method: (§1) FIG. 2 illustrates proteolytic cleavage by formulation IS 100 shown by Western analysis of cleavage products of substrate proteins. IS 100 was incubated with the test protein in the presence and absence of the synthetic inhibitor Ac-DEVD-CHO, and the reaction product was immunoblotted using antibody for the test protein.
(§2) These two proteins were chosen simply because of their ready availability with the investigators. In fact, any protein will be a substrate for IS 100. In a typical protocol, IS 100 is incubated with the test substrate protein in the presence and absence of the synthetic inhibitor Ac-DEVD-CHO, and the reaction products are analyzed by electrophoresis, the amount of the uncut test protein is immunoblotted with human anti-PKR or anti-PERK antibodies. Note that immunoblotting of a test protein by using the corresponding antibody will show the status of that protein alone, and not other proteins present in IS 100.

A further experiment relates to human recombinant PKR. As to the kind of experiment: Proteolytic cleavage of PKR by IS 100, Western analysis. Format: biochemical. As to conditions: inhibitor included in reaction mixture, FIG. 2 lane 1. As to the method:
as §1, §2

Consider 7 compounds from patent publication US20160058847A1, “IS100- A Highly Effective Enzyme Principle For Use In Dermal Therapeutics, And For Health And Beauty” (Issar Pharmaceuticals Pvt. Ltd., priority 2014, published 2016).

Entries after “also recorded” stand apart in the source; their conditions may differ.

With `O=S(=O)(F)Cc1ccccc1` [PMSF, phenylmethanesulfonyl fluoride], the “inhibition of IS 100 activity (in words)” value in the experiment with IS 100 [1] is “only marginally; also recorded: sign of inhibition is also apparent”. For the same compound, the “inhibition of IS 100 activity” value in the experiment with IS 100 [1] (at 1000 μM, FIG. 3C) is ~10%. In the case of `[Cl-].[Cl-].[Mg+2]` [MgCl2, magnesium chloride], the “concentration at which the activity passes through a minimum” value in the experiment with IS 100 [2] (FIG. 1F) is given as ~0.1 mM. As for `[Cl-].[Na+]` [NaCl, sodium chloride], the “effect of NaCl concentration on enzyme activity” value in the experiment with IS 100 [2] (FIG. 1D) is reported as “highly sensitive”.

Regarding `CC(=O)N[C@@H](CC(C)C)C(=O)N[C@@H](CC(C)C)C(=O)N[C@H](C=O)CCCNC(=N)N` [leupeptin], the “inhibition of IS 100 activity (in words)” value in the experiment with IS 100 [1] was “influences the activity to some extent”. Further, the “inhibition of IS 100 activity, saturation level” value in the experiment on IS 100 [1] (at ~25 μM, FIG. 3B) is 30%. As for `[Cl-].[Cl-].[Zn+2]` [ZnCl2, zinc chloride], at IS 100 [2] (read-out: apparent binding constant, KZn app (inhibition), FIG. 1E), the Kd stood at 310 µM. For the compound Ac-DEVD-CHO, the “inhibition of IS 100 activity (in words)” value with IS 100 [1] is given as “inhibits the activity of IS 100 significantly”. Besides, in the experiment on human recombinant PERK, the “block of PERK cleavage by IS 100” value was “cleavage is blocked; also recorded: not cleaved”. The “block of PKR cleavage by IS 100” value in the experiment on human recombinant PKR was “cleavage is blocked; also recorded: not cleaved”.

As for `O=C(O)CI` [IAA, Iodoacetic acid], the “inhibition of IS 100 activity (in words)” value in the experiment with IS 100 [1] is recorded as “completely inhibits the activity; also recorded: almost completely knocks out the activity”.
